Source: ChEMBL document CHEMBL4043168, “The design and SAR of a novel series of 2-aminopyridine based LRRK2 inhibitors” (Bioorg Med Chem Lett, 2017)
≈ marks a conversion by molar mass, not a printed value.

What was measured:
[1] = Aqueous solubility of the compound in pH 7.4; assay type: physicochemical; settings: aqueous medium
[2] = biological target: 5'-AMP-activated protein kinase catalytic subunit alpha-1 (Homo sapiens) (UniProt Q13131); assay: Inhibition of AMPKa1 ATP loop (IGHYILGDTLGVGTFGKVK) in human PBMC at 1 uM; settings: pooled result: one value given for 5 cell lines, strains, targets or settings
[3] = biological target: Activated CDC42 kinase 1 (Homo sapiens) (UniProt Q07912); assay: Inhibition of ACK labeling at ATP binding site (TVSVAVKCLKPDVLSQPEAMDDFIR) in human PBMC at 1 uM
Activated CDC42 kinase 1 (Homo sapiens), sequence (Q07912 whole entry, looked up): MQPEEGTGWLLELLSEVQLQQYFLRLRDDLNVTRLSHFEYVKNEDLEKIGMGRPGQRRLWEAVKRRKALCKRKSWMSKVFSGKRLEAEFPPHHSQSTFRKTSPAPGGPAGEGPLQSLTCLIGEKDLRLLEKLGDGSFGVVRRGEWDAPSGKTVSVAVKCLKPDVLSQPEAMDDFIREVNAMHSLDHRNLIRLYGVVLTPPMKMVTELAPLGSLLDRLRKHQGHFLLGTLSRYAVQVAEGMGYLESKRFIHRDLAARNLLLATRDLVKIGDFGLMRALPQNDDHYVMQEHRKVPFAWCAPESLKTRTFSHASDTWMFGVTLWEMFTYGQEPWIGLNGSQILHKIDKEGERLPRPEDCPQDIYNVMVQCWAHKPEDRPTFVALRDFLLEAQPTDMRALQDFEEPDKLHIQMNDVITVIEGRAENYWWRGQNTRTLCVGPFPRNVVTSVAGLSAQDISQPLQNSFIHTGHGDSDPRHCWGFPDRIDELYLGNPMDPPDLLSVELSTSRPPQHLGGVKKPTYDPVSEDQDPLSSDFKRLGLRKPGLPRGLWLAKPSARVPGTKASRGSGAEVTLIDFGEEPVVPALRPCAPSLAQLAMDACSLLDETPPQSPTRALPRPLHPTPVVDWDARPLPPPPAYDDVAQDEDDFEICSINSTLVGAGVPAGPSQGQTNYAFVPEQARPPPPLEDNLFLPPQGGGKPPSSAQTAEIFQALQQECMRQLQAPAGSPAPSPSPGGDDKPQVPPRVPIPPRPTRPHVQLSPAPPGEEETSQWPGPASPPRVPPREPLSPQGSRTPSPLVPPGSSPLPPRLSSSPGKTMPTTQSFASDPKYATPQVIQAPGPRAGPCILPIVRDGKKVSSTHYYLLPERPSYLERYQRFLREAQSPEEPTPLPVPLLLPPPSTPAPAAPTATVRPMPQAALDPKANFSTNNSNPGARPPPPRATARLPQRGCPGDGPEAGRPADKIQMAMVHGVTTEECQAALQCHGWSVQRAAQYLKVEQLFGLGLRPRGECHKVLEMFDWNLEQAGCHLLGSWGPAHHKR

[4] = biological target: Calcium/calmodulin-dependent protein kinase type II subunit gamma (Homo sapiens) (UniProt Q13555); assay: Inhibition of CaMK2g labeling at conserved Lys2 (DLKPENLLLASK) in human PBMC at 1 uM
[5] = biological target: Serine/threonine-protein kinase Chk2 (Homo sapiens) (UniProt O96017); assay: Inhibition of CHK2 labeling at conserved Lys1 (VAIKIISK) in human PBMC at 1 uM
[6] = biological target: Tyrosine-protein kinase Fgr (Homo sapiens) (UniProt P09769); assay: Inhibition of FGR conserved Lys1 (LIKDDEYNPCQGSKFPIK) in human PBMC at 1 uM
[7] = biological target: T1, Interleukin-1 receptor-associated kinase 4 (Homo sapiens) (UniProt Q9NWZ3); assay: Inhibition of IRAK4 conserved Lys2 (DIKSANILLDEAFTAK) in human PBMC at 1 uM
T1 sequence (whole entry): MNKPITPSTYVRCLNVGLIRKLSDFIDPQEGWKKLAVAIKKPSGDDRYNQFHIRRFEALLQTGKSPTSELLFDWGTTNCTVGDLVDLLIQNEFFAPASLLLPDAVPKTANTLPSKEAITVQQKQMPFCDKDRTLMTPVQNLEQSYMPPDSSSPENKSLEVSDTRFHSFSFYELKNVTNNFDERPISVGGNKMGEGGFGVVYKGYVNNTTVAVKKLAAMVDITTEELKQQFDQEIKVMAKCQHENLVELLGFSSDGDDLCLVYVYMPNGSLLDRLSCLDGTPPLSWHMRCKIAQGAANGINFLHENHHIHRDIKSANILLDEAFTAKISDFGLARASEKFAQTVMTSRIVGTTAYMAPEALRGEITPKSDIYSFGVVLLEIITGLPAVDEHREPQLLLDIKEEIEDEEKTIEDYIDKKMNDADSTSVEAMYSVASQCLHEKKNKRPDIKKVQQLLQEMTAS

[8] = biological target: Leucine-rich repeat serine/threonine-protein kinase 2 (Homo sapiens, UniProt Q5S007); assay: Inhibition of LRRK2 conserved Lys2 (DLKPHNVLLFTLYPNAAIIAK) in human PBMC at 1 uM
Leucine-rich repeat serine/threonine-protein kinase 2, sequence (Q5S007 whole entry): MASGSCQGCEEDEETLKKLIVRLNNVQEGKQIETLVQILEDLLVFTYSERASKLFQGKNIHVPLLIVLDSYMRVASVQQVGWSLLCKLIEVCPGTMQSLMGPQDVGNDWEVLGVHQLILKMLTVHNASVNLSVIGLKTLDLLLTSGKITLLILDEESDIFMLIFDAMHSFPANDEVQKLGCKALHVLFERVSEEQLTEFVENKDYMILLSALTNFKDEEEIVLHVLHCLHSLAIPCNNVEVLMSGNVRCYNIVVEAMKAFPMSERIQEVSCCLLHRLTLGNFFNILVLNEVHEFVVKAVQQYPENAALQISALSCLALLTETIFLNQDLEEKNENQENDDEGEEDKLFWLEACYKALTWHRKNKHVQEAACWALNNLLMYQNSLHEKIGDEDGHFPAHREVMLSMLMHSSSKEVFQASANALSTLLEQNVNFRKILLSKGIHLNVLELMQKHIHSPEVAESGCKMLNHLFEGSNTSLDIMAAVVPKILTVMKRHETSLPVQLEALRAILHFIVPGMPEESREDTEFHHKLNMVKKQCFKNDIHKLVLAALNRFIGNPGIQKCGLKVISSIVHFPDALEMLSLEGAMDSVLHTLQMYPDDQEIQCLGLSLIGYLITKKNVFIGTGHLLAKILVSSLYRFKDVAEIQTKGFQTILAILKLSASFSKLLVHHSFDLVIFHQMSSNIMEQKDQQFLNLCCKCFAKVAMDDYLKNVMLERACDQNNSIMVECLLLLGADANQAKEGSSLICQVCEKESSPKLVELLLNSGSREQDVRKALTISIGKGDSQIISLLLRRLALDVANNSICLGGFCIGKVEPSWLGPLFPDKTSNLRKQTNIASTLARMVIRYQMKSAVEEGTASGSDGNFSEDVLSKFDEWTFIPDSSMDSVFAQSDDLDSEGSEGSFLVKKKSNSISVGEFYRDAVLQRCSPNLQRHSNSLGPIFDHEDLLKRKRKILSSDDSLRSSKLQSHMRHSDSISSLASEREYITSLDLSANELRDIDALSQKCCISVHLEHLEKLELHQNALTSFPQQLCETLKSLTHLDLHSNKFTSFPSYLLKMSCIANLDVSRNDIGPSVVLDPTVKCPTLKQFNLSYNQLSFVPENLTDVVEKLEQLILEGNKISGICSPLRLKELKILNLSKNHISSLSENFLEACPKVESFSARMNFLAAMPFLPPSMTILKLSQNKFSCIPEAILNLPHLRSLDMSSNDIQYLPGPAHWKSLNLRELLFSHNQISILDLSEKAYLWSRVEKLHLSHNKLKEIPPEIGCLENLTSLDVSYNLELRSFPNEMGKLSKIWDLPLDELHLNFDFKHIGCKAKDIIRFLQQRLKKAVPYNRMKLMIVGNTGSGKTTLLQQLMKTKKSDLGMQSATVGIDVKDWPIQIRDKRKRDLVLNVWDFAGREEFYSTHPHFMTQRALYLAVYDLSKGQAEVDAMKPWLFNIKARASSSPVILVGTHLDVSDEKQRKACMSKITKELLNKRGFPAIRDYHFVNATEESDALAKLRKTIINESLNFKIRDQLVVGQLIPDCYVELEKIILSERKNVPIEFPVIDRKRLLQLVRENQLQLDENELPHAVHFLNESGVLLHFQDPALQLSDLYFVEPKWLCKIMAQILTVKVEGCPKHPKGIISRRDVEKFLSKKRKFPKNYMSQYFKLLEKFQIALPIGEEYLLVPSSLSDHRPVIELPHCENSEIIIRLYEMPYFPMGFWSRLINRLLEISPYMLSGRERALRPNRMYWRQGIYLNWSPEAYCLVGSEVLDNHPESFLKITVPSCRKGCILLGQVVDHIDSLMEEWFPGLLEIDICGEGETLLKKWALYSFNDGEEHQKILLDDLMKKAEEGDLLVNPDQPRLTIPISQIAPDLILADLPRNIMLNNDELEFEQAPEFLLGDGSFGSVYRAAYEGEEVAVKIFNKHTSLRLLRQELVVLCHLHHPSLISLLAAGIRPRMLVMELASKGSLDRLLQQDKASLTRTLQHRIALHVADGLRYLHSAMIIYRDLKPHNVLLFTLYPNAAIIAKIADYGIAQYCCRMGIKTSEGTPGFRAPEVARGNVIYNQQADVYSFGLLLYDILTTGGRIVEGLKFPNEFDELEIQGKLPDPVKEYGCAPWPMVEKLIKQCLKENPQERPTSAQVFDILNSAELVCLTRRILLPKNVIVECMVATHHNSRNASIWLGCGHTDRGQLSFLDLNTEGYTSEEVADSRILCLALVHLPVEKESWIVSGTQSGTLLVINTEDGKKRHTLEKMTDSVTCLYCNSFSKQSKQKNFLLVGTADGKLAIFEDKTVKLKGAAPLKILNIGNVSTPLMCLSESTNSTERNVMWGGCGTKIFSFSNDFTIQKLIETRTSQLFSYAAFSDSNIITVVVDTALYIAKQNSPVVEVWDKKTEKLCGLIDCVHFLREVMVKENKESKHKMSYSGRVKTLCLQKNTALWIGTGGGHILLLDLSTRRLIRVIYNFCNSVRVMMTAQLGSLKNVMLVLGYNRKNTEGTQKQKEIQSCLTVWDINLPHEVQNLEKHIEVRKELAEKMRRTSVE

[9] = biological target: MAP/microtubule affinity-regulating kinase 3 (Homo sapiens) (UniProt P27448); assay: Inhibition of MARK3 conserved Lys2 (DLKAENLLLDADMNIK) in human PBMC at 1 uM
MAP/microtubule affinity-regulating kinase 3 (Homo sapiens), sequence (P27448 whole entry, looked up): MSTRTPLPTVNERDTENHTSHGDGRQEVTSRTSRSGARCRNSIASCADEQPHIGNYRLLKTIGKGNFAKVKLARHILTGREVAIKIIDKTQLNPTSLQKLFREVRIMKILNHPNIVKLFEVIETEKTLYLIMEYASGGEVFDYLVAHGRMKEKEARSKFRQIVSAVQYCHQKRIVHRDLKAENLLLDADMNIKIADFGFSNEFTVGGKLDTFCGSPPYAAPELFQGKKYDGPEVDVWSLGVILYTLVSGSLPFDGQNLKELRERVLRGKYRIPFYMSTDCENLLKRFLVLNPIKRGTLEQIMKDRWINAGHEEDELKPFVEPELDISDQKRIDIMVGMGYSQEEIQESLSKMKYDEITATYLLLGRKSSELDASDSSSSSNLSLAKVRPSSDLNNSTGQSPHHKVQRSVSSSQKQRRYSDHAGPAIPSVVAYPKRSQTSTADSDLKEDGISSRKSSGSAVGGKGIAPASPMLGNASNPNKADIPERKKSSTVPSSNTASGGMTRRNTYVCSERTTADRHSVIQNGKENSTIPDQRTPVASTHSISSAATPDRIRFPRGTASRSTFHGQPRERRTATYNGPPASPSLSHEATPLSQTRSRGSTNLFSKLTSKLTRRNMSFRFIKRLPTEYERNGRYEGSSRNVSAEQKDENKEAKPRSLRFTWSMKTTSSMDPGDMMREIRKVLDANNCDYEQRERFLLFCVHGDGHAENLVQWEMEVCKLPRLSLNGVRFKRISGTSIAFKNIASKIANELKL

[10] = biological target: T2, Serine/threonine-protein kinase 4 (Homo sapiens) (UniProt Q13043); assay: Inhibition of MST1 conserved Lys1 ETGQIVAIKQVPVESDLQEIIK in human PBMC at 1 uM
T2 sequence (whole entry): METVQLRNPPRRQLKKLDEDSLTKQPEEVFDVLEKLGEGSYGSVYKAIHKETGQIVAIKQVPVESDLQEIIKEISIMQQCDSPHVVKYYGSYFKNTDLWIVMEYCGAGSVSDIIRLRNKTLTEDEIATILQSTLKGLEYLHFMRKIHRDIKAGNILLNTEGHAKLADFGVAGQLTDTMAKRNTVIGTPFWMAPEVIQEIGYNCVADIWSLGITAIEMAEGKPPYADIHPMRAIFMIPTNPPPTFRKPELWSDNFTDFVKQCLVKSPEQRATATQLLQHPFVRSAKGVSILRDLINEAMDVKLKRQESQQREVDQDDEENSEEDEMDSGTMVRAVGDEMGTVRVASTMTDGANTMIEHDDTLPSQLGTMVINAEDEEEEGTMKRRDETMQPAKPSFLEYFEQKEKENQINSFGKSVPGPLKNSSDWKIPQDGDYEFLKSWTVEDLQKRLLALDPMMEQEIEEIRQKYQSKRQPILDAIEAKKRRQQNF

[11] = biological target: PAN2-PAN3 deadenylation complex subunit PAN3 (Homo sapiens) (UniProt Q58A45); assay: Inhibition of PAN3 Protein Kinase Domain (VMDPTKILITGK) in human PBMC at 1 uM
[12] = biological target: Serine/threonine-protein kinase WNK4 (Homo sapiens) (UniProt Q96J92); assay: Inhibition of Wnk4 activation Loop (IGDLGLATLKR) in human PBMC at 1 uM
[13] = biological target: Cyclin-dependent kinase 2 (Homo sapiens) (UniProt P24941); assay: Inhibition of CDK2 labeling at conserved Lys1 (LTGEVVALKK) in human PBMC at 0.1 uM
[14] = biological target: Tyrosine-protein kinase HCK (Homo sapiens) (UniProt P08631); assay: Inhibition of HCK activation Loop (EGAKFPIKWTAPEAINFGSFTIK) in human PBMC at 0.1 uM
Tyrosine-protein kinase HCK (Homo sapiens), sequence (P08631 2-526 limits assumed): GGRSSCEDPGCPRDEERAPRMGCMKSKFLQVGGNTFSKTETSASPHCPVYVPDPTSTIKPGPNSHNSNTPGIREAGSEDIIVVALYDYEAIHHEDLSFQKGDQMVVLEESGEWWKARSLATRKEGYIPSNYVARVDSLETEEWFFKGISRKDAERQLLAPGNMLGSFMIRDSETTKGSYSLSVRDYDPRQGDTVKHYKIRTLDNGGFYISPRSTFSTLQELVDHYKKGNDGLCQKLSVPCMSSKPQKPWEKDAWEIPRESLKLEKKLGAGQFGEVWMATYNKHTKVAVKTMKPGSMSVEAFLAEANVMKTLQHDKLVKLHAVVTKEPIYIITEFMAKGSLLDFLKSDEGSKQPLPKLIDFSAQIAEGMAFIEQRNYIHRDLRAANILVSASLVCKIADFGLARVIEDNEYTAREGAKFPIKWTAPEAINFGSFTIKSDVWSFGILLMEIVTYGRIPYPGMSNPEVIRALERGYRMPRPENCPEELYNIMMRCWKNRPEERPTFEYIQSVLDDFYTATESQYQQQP

[15] = biological target: Mitogen-activated protein kinase 10 (Homo sapiens) (UniProt P53779); assay: Inhibition of JNK3 conserved Lys2 (DLKPSNIVVK) in human PBMC at 0.1 uM
[16] = biological target: T2, Serine/threonine-protein kinase 4 (Homo sapiens); assay: Inhibition of MST1 conserved Lys2 (DIKAGNILLNTEGHAK) in human PBMC at 0.1 uM
[17] = biological target: Phosphatidylinositol 3-kinase catalytic subunit type 3 (Homo sapiens) (UniProt Q8NEB9); assay: Inhibition of PIK3C3 ATP binding site (TEDGGKYPVIFKHGDDLR) in human PBMC at 0.1 uM
[18] = biological target: Ribosomal protein S6 kinase alpha-1 (Homo sapiens) (UniProt Q15418); assay: Inhibition of RSK1 domain1 activation Loop (LTDFGLSKEAIDHEKK) in human PBMC at 0.1 uM
[19] = biological target: T3, STE20-related kinase adapter protein alpha (Homo sapiens) (UniProt Q7RTN6); assay: Inhibition of STLK5 conserved Lys2 (SVKASHILISVDGK) in human PBMC at 0.1 uM
T3 sequence (whole entry): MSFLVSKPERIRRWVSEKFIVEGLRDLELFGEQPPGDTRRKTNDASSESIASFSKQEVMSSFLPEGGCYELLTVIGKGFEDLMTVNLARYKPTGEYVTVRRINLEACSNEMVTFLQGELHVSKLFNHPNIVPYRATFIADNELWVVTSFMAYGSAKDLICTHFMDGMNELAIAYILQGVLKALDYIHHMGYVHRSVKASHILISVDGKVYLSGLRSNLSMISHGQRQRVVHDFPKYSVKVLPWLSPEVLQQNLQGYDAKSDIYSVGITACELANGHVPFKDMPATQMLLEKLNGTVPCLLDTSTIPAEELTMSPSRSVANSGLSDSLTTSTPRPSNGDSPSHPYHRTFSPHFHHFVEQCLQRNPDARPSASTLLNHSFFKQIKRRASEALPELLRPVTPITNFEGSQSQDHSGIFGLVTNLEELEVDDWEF

`CC(C)n1cc(-c2cc(-c3ccc(CN4CCOCC4)cc3)cnc2N)nn1` gave a solubility [1] of 36 µg/mL (≈ 95.1 µM), an inhibition [2] of 13.1% and an inhibition [3] of -5.7%. For the same molecule, the inhibition [4] was -0.4%, the inhibition [5] was 9.1% and the inhibition [6] was -8.4%. It also gave an inhibition [7] of -2.5%, an inhibition [8] of 48.5% and an inhibition [9] of 28.8%. For the same molecule, the inhibition [10] was -9.5%, the inhibition [11] was 0.1% and the inhibition [12] was 21.9%. For the same molecule, the inhibition [13] was 23.4%, the inhibition [14] was -7.4% and the inhibition [15] was 25.1%. The inhibition [16] was 1.3%, the inhibition [17] was 14.1% and the inhibition [18] was 17.2%. It also gave an inhibition [19] of 26.2%.
